PubChem BioAssay (NCI)
Where “and” joins values, the source holds several entries; their conditions need not be identical. Equal values may be shown once.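 Cultured in 96-well plates, cells were exposed to test compound for 48 hours across five concentrations. The concentration for 50% growth inhibition is given as GI50. TGI is the concentration that stops growth completely.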

Legend:
Assay in all cases: DTP human tumour cell line panel, 48 h
[1] = tested on: OVCAR-4 ovarian
[2] = tested on: MCF7 breast
[3] = tested on: A498 renal
[4] = tested on: SNB-75 CNS
[5] = tested on: SN12C renal
[6] = tested on: K-562 leukemia
[7] = tested on: SNB-19 CNS
[8] = tested on: MDA-N
[9] = tested on: A549 NSCLC
[10] = tested on: HCT-15 colon

Compound	TGI [1]	TGI [2] [µM]	TGI [3] [µM]	TGI [4]	TGI [5]	TGI [6]	TGI [7]	TGI [8]	TGI [9]	TGI [10]	GI50 [1] [µM]	GI50 [2] [µM]	GI50 [5] [µM]	GI50 [6] [µM]	GI50 [7] [µM]	GI50 [3] [µM]	GI50 [4] [µM]	GI50 [9] [µM]	GI50 [10] [µM]
CO/N=C(\C)c1cccc(Nc2nc3ccccc3c3occc23)c1	31.8 µM	36.8	17.3	29.1 µM	26.9 µM	38.2 µM	31 µM	28.5 µM	30 µM	24.5 µM									
Nc1nc(OCC2CCCCC2)c2[nH]cnc2n1	42.3 µM	> 100	54.4	> 81 µM	56.3 µM	> 100 µM	> 100 µM	58.3 µM	81.5 µM	> 100 µM									
O=C(NC(Cc1ccc(I)cc1)C(=O)O)c1ccc(Cl)cc1 (stereo unspecified)	> 100 µM	> 100	> 100	> 100 µM	> 100 µM	> 100 µM	> 100 µM		> 100 µM	> 100 µM									
CCSc1nc(-c2cccs2)nc2ccc(I)cc12	> 100 µM	> 100		> 100 µM	> 100 µM	> 100 µM	> 100 µM	> 100 µM	> 100 µM	> 100 µM									
CC1CC(Br)C(=O)O1 (stereo unspecified)	> 100 µM	> 100	> 100	> 100 µM	> 100 µM	> 100 µM	> 100 µM	> 100 µM	> 100 µM	> 100 µM									
NCCNCCNc1ccc(NCCNCCN)c2c1C(=O)c1c(O)ccc(O)c1C2=O	> 100 µM	> 100	> 100	> 100 µM	> 100 µM	> 100 µM	> 100 µM	> 100 µM	> 100 µM	> 100 µM									
c1ccc([P+](c2ccccc2)(c2ccccc2)c2ccc(-c3ccc([P+](c4ccccc4)(c4ccccc4)c4ccccc4)cc3)cc2)cc1	94.8 µM	> 100	10.3		97.1 µM	> 100 µM	> 100 µM	92.6 µM	87.9 µM	> 100 µM									
Cc1c2cc[n+](C)cc2c(C)c2c1oc1ccccc12	21.8 µM	70.5	> 69	5.49 µM	4.57 µM	34.9 µM	4.27 µM	23.8 µM	36.5 µM	> 100 µM									
O=C1OC2(OC2c2ccc(Cl)cc2)c2ccccc21 (stereo unspecified)	> 100 µM			> 100 µM	> 100 µM	> 100 µM	> 100 µM		> 100 µM	> 100 µM									
CN(C)CCCN1c2ccc([N+](=O)[O-])cc2CCc2cc([N+](=O)[O-])ccc21	14 µM and 31.3 µM	31.2	22.5	24.8 µM and 29.3 µM	29.3 µM and 28.4 µM	59.5 µM and 31.2 µM	32 µM and 29.1 µM	27.2 µM and 27 µM	32.7 µM and 31.5 µM	33 µM and 33.6 µM									
COc1ccc2c(c1)/C(=C\c1c(Cl)n(-c3ccccc3)c3ccccc13)C(=O)N2	41.4 µM	29.5	32	52.2 µM	35.5 µM	> 100 µM	22.1 µM		51.4 µM	25.3 µM									
CCOC(=O)Nc1cc2c(c(N)n1)N=C(c1ccc3ccccc3c1)CN2	> 64.6 µM	> 100	35.2		5.29 µM	10.3 µM		1.04 µM	23.8 µM	> 100 µM									
C[N+](C)(C)CCN[N+]1(C)CCCc2ccccc21 (stereo unspecified)	> 100 µM	> 100	35.1	> 100 µM	> 100 µM	> 100 µM	> 100 µM	> 100 µM	> 100 µM	> 100 µM									
COc1cc([N+](=O)[O-])ccc1NC(=O)c1cccc([N+](=O)[O-])c1O	> 100 µM		51.7	70.5 µM	71.8 µM	> 100 µM	> 100 µM		66.6 µM	> 100 µM									
CC1(C=O)CCC23COC4(CCC5C6(C)CCC(OC7OCC(OC8OC(CO)C(O)C(OC9OC(CO)C(O)C(O)C9O)C8OC8OCC(O)C(O)C8O)C(O)C7OC7OC(CO)C(O)C(O)C7O)C(C)(C)C6CCC5(C)C4(C)CC2O)C3C1 (stereo unspecified)	2.38 µM	2.07	1.94	2.51 µM		> 100 µM	1.09 µM	1.81 µM	3.53 µM	2.86 µM									
CS(=O)(=O)OCCN(CCOS(C)(=O)=O)c1ccc(/C=N/Nc2ncnc3nc[nH]c23)cc1	60 µM		60.6	33.6 µM	> 100 µM	> 100 µM	> 100 µM		96.6 µM	> 100 µM									
Cc1ccc([N+](=O)[O-])cc1S(=O)(=O)Nc1ccc(C2=NOC(c3ccccc3O)C2)cc1 (stereo unspecified)	22.4 µM	14	32.6	55.2 µM	> 100 µM	> 100 µM	17.7 µM	4.17 µM	71.8 µM	85.3 µM									
O=c1c2cc(S(=O)(=O)O)ccc2nc(COc2ccc(Oc3ccc(Cl)cc3Cl)cc2)n1C(=S)Nc1ccc(Cl)cc1	59.3 µM	38.3	52.5	41.5 µM	34.7 µM	30.8 µM	> 100 µM	51 µM	53.1 µM	50.5 µM									
O=C1CSC(c2ccccc2O)N1c1nc2cc3sc(N4C(=O)CSC4c4ccccc4O)nc3cc2s1 (stereo unspecified)	> 100 µM	> 100	> 100	> 100 µM	> 100 µM	> 100 µM	> 100 µM	> 100 µM	> 100 µM	> 100 µM									
N=C(N)SCc1cccc([N+](=O)[O-])c1	> 83.1 µM	> 83.8	> 74	89 µM	> 96.1 µM	> 62.3 µM			> 100 µM	> 100 µM									

Compound	TGI [1]	TGI [2] [µM]	TGI [3] [µM]	TGI [4]	TGI [5]	TGI [6]	TGI [7]	TGI [8]	TGI [9]	TGI [10]	GI50 [1] [µM]	GI50 [2] [µM]	GI50 [5] [µM]	GI50 [6] [µM]	GI50 [7] [µM]	GI50 [3] [µM]	GI50 [4] [µM]	GI50 [9] [µM]	GI50 [10] [µM]
O=C1N(CN2CCOCC2)CN(CN2CCOCC2)C(=O)N1Cc1ccc(CN2C(=O)N(CN3CCOCC3)CN(CN3CCOCC3)C2=O)cc1	> 100 µM	> 100	> 100	> 100 µM	> 100 µM		> 100 µM	> 100 µM	> 100 µM	> 100 µM									
C[n+]1c2ccccc2c(CNC(CS)C(=O)O)c2ccccc21 (stereo unspecified)	> 100 µM		53.8	47.7 µM	> 100 µM	> 100 µM	> 100 µM		83.9 µM	55.1 µM									
Cc1[nH]n(-c2ccccc2)c(=O)c1C(N(CCc1ccccc1)C1=NCC(C)S1)(C(F)(F)F)C(F)(F)F (stereo unspecified)	> 100 µM	> 100	30.9	50.1 µM	48.5 µM	> 100 µM	> 100 µM	45.7 µM	83.7 µM	41.1 µM									
Oc1ccc(-c2nc3cc(F)ccc3s2)cc1	36.9 µM	28.5			53.3 µM	72.3 µM	> 100 µM	79.4 µM	40.6 µM	68.2 µM									
COC(=O)/C=C1\CCCN1CCc1cc2c(cc1CC#N)OCO2	> 100 µM	> 100	80.2	66.8 µM	> 100 µM	> 100 µM	> 100 µM	45.6 µM	> 100 µM	> 100 µM									
CCOP(=O)(OCC)C(Nc1cccc(F)c1)c1ccc(N(C)C)cc1 (stereo unspecified)	> 100 µM	> 100	> 100	> 100 µM	> 100 µM	> 100 µM	> 100 µM	> 100 µM	> 100 µM	> 100 µM									
CC1C(=O)C(C)C(c2ccco2)N(N=O)C1c1ccco1 (stereo unspecified)	> 100 µM	> 100	> 100	> 100 µM	> 100 µM	> 100 µM	> 100 µM		> 100 µM	> 100 µM									
CN(C)c1ccc(/C=c2/c3ccccc3n3c2cc(NC(=O)NCCC[N+](C)(C)C)[n+]3C)cc1	50.1 µM	> 100	> 100			> 100 µM	> 100 µM		> 100 µM	> 100 µM									
N=c1oc2ccc(Cl)cc2cc1C(N)=O	85.9 µM		> 100	> 100 µM	45.1 µM	> 100 µM	> 100 µM	69.1 µM	> 100 µM	69.2 µM									
O=C(CSc1nc2ccc(I)cc2c(=O)n1Cc1ccccc1)NN1C(=O)c2ccccc2C1=O	38.2 µM	> 100	35.7	21.8 µM	57.3 µM	> 100 µM	57.3 µM	> 100 µM	72.5 µM	> 100 µM									
COc1cc([N+](=O)[O-])ccc1N1C(=O)C2c3[nH]c4ccccc4c3C3CCC(C(C)(C)C)CC3C2C1=O (stereo unspecified)	> 100 µM	> 100	> 100		> 100 µM			> 100 µM	> 100 µM	> 100 µM									
CSc1ccc(/C=C2\N=C(c3ccccc3)N(/N=C3\C(=O)Nc4ccccc43)C2=O)cc1	> 100 µM	> 100	> 100	> 100 µM	> 100 µM	> 100 µM	> 100 µM	> 100 µM	> 100 µM	> 100 µM									
Nc1nnc2oc3ccc4ccccc4c3cc1-2	> 100 µM	> 100	71.8	81 µM	87 µM	> 100 µM	> 100 µM	> 100 µM	> 100 µM	> 100 µM									
CCc1ccc2c(c1)C(=O)c1c-2n(CCCN)c(=O)c2cc([N+](=O)[O-])ccc12	3 µM	1.6			2.95 µM	0.756 µM	2.42 µM				1.39	0.362	1.48	0.243	1.17				
N#C/C(C(=O)Nc1ccc(Cl)cc1)=C(/N)N1CCOCC1		> 100	> 100	> 100 µM	> 100 µM	> 100 µM	> 100 µM	> 100 µM	> 100 µM	> 100 µM									
COC(=O)NC1C(C)OC(OC2C/C=C(/C)C3C=CC4C(OC5CC(OC6CC(OC7CC(O)C(O)C(C)O7)C(OC7CC(O)C(OC)C(C)O7)C(C)O6)C(O)C(C)O5)C(C)CC(C)C4C3(C)/C(O)=C3\C(=O)OC4(CC(C)C(CO)=CC4/C=C\2C)C3=O)CC1(C)[N+](=O)[O-] (stereo unspecified)	46.2 µM	> 100	57.9	16.7 µM	> 100 µM		> 100 µM	> 100 µM	> 100 µM	36.4 µM									
CC1(O)COCCCCOc2c(CN)cccc2NC(=O)c2nc(cnc2N)-c2ccc(cc2)S(=O)(=O)C(C)(C)C1 (stereo unspecified)	2.71 µM	1.89	1.43	1.94 µM	2.66 µM		2.74 µM		2.34 µM	1.82 µM	1.29	< 0.01	1.27		1.33	0.0163	0.17	0.29	0.227
c1c2c(cc3c1OCO3)-c1cc3ccc4c(c3c[n+]1CC2)OCO4	> 12.5 µM	> 12.5	> 12.5	> 8.5 µM	> 12.5 µM	> 12.5 µM	> 8.78 µM	0.595 µM	> 12.5 µM	4.77 µM									
COC(=O)c1ccccc1C1=C([N+](=O)[O-])C(c2cccc(Br)c2)C(C#N)=C(N)O1 (stereo unspecified)				92.6 µM	> 100 µM	76.5 µM	> 100 µM	> 100 µM	> 100 µM	41 µM									
COc1ccc(/C=C2\N=C(c3ccccc3)OC2=O)cc1OC(C)=O	> 100 µM	> 100	> 100	> 100 µM	> 100 µM	> 100 µM	> 100 µM		> 100 µM	> 100 µM									
